# Results as given in the supplement of paper PMC6723410.
# Tested on: GUMC-403
# Experiment: viability at highest tested concentration (max response) relative to DMSO (% of DMSO control); higher = less cytotoxic
# Details: library / dose series: MIPE library, 11-point 1:3 dilution; top concentration 46.1 µM; 48 h
# Summary of the method: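 The value is viability at the highest tested concentration, expressed relative to vehicle control. Patient-derived GUMC-403 papilloma cells, grown by conditional reprogramming, were seeded at 700/well in 5 μL F + Y medium in 1536-well plates. After an overnight incubation at 37 °C, they received 23 nL of compound by pin tool for 48 h. Readout was CellTiter-Glo luminescence on a ViewLux, normalised to vehicle wells (100%) and empty wells (0%).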
row,SMILES,viability
1,CO[C@@]12[C@H](COC(N)=O)C/3=C(N1C[C@@H]4N[C@H]24)/C(=O)/C(=C(N)\C3=O)C,77
2,Nc1nc(N)nc(-c2cc(Cl)ccc2Cl)n1.O=C(O)/C=C\C(=O)O,112
3,Cc1ccc(C(C)(O)c2nc3ccccc3s2)c(C)c1 (centres undefined),115
4,CC(C)(OCc1nn(Cc2ccccc2)c2ccccc12)C(=O)O,113
5,CC(=O)O[C@H]1C[C@@H]2CC[C@@H]3[C@H](CC[C@@]4(C)[C@H]3C[C@H]([N+]3(C)CCCCC3)[C@@H]4OC(C)=O)[C@@]2(C)C[C@@H]1[N+]1(C)CCCCC1,122
6,CC(C)(C)C(=O)OCOP(=O)(COCCn1cnc2c(N)ncnc21)OCOC(=O)C(C)(C)C,93
7,Cc1ccc(-c2cc(C(F)(F)F)nn2-c2ccc([S+](N)(=O)[O-])cc2)cc1,114
8,COC1=CC(=CC=C1)C2=CC=C(NC(=O)/C3=C(/CCC3)C(O)=O)C(=C2)F,99.8
9,CO[C@H]1C[C@H]2OC[C@@]2(OC(C)=O)[C@H]3[C@H](OC(=O)C4=CC=CC=C4)[C@]5(O)C[C@H](OC(=O)[C@H](O)[C@@H](NC(=O)OC(C)(C)C)C6=CC=CC=C6)/C(=C(/[C@@H](OC)C(=O)[C@]13C)C5(C)C)C,88.5
10,CN1\N=N/C2=C(N=C[N]2C1=O)C(N)=O,121
11,COCCCOc1cc(C[C@@H](C[C@H](N)[C@@H](O)C[C@H](C(=O)NCC(C)(C)C(N)=O)C(C)C)C(C)C)ccc1OC,130
12,O=c1cc(-c2ccc(O)c(O)c2)oc2cc(O)cc(O)c12,115
13,CCc1ccc(C(=O)Nc2cc(CN3CCN(C)CC3)cc(C(F)(F)F)c2)cc1C#Cc1cnc2ccnn2c1,119
14,Cn1cnc(N)c2ncnc1-2,82.9
15,CCN1\C=C(C(O)=O)/C(=O)C2=C1C(=C(N3CCNC(C)C3)C(=C2)F)F (centres undefined),126
16,CC(C)C1NC(=O)C(NC(=O)C2=C3\N=C\4/C(=C(C)\C(=O)\C(=C4C(=O)NC5C(C)OC(=O)C(C(C)C)N(C)C(=O)CN(C)C(=O)C6CCCN6C(=O)C(NC5=O)C(C)C)N)OC3=C(C)C=C2)C(C)OC(=O)C(C(C)C)N(C)C(=O)CN(C)C(=O)C7CCCN7C1=O (centres undefined),12.2
17,COC(=O)[C@@H]1CC2=CC(=O)CC[C@]2(C)[C@@]23O[C@@H]2C[C@@]2(C)[C@@H](CC[C@@]24CCC(=O)O4)[C@H]13,128
18,C#CCN[C@@H]1CCc2ccccc21.CS(=O)(=O)O,89
19,CC(=O)Oc1ccccc1C(=O)O,118
20,CCCCCNC(=O)N1CCC(CN(Cc2ccc(Cl)cc2)Cc2ccc([N+](=O)[O-])s2)C1 (centres undefined),83.4
21,O=C(O)/C=C/c1ccc(Cn2ccnc2)cc1,124

row,SMILES,viability
1,C[C@H]1C[C@H]2[C@@H]3CCC4=CC(=O)C=C[C@]4(C)[C@H]3C(=O)C[C@]2(C)[C@@]1(O)C(=O)CO,104
2,CC(C)OC(=O)/C1=C/N(CC(C)(C)C2=C1[NH]C3=CC=CC=C23)C(=O)C4=CC=C(F)C(=C4)F,107
3,CC/C(=C(/CC)c1ccc(O)cc1)c1ccc(O)cc1,84.8
4,C=CC(=O)Nc1ccc2ncnc(Nc3ccc(OCc4cccc(F)c4)c(Cl)c3)c2c1,26.3
5,COc1c(O)cc2c(c1O)[C@@H]1O[C@H](CO)[C@@H](O)[C@H](O)[C@H]1OC2=O,110
6,C[C@@H](NCc1cc2ccccc2[nH]1)c1cccc2ccccc12,108
7,CCOC(=O)[C@H](CCc1ccccc1)N[C@@H](C)C(=O)N1CCC[C@H]1C(=O)O,125
8,O=C1CCc2cc(OCCCCc3nnnn3C3CCCCC3)ccc2N1,107
9,OC1=CC2=C(C(=C1)O)C(=O)\C(=C(/O2)C3=CC(=C(O)C(=C3)O)O)O,102
10,CC(C)c1cccc(C(C)C)c1O,108
11,CC1CCC(C(=O)N(c2cc(C#CC(C)(C)C)sc2C(=O)O)C2CCC(O)CC2)CC1 (centres undefined),106
12,C[C@]12CC[C@H]3[C@@H](CCC/4=C/C(=O)CC[C@]34C)[C@@H]1CC[C@@H]2OC(=O)CCC5CCCC5,102
13,CC(C)C(=O)Nc1ncc(-c2cc(C(F)F)nn2-c2c(Cl)cccc2Cl)s1,90.8
14,OC1=C(C=CC=C1)C2=CC=C(C=C2)C3=CSC4=C3C(=C(/C#N)C(=O)N4)/O,125
15,CN1CCCC(CC1)N2\N=C(CC3=CC=C(Cl)C=C3)/C4=C(C=CC=C4)C2=O (centres undefined),78.8
16,N[C@@H](Cc1cc(I)c(Oc2cc(I)c(O)c(I)c2)c(I)c1)C(=O)O,123
17,CN(C/C=C/C#CC(C)(C)C)Cc1cccc2ccccc12,123
18,CCCNC(=O)[C@H]1O[C@@H]1C(=O)N[C@H](C(=O)N1CCC[C@H]1C(=O)OC)C(C)CC (some centres undefined),109
19,CN[C@@H]1Cc2cccc3[nH]c(=O)n(c23)C1,112
20,Cc1nnc(C(=O)NC(C)(C)c2nc(C(=O)NCc3ccc(F)cc3)c(O)c(=O)n2C)o1,124
21,CN1C2CCC1CC(OC(=O)C(CO)c1ccccc1)C2 (centres undefined),109

row,SMILES,viability
1,CO[C@H]1/C=C/O[C@@]2(C)Oc3c(C)c(O)c4c(c3C2=O)C2=NC3(CCN(CC(C)C)CC3)NC2=C(NC(=O)/C(C)=C\C=C\[C@H](C)[C@H](O)[C@@H](C)[C@@H](O)[C@@H](C)[C@H](OC(C)=O)[C@@H]1C)C4=O,118
2,CN1CCN(c2ccc([N+](=O)[O-])c3no[n+]([O-])c23)CC1,108
3,CC[C@H](CC[C@@H](C)[C@H]1CC[C@H]2[C@@H]3C\C=C/4C[C@@H](O)CC[C@]4(C)[C@H]3CC[C@]12C)C(C)C,101
4,CCOC(=O)[C@H](CCc1ccccc1)N[C@H]1CCc2ccccc2N(CC(=O)O)C1=O,124
5,N[C@H]2CN(CC12CC1)c3c(F)cc4c(c3Cl)[N@@](C=C(C4=O)C(=O)O)C5C[C@H]5F (some centres undefined),103
6,OC(=O)C/1=C/C(=O)NC(=O)N1,122
7,N\C1=N\C2=C(N=C[N]2COC(CO)CO)C(=O)N1,43.9
8,COc1ccc(C(=O)c2c(C)n(CCN3CCOCC3)c3cc(I)ccc23)cc1,143
9,NC/1=N/C(=O)N/C=C1F,104
10,COc1ccc(/C=C\c2cc(OC)c(OC)c(OC)c2)cc1NC(=O)[C@H](N)CO,85.1
11,CCC[C@H](N[C@@H](C)C(=O)N1[C@H](C(=O)O)C[C@@H]2CCCC[C@@H]21)C(=O)OCC,120
12,C[C@@H]1CN[C@H]2[C@@H](C)[C@@]\3(CC[C@H]\4[C@@H]5C/C=C6/C[C@@H](O)CC[C@]6(C)[C@H]5CC4=C3C)O[C@@H]2C1,116
13,Oc1nc(-c2ccc(C(F)(F)F)cc2)nc2c1CSCC2,86.4
14,Cn1cc(-c2ccc3nnc(C(F)(F)c4ccc5ncccc5c4)n3n2)cn1,110
15,Cc1cccc(C#Cc2ccccc2)n1,101
16,Cc1ccccc1C(=O)c1ccc(Nc2ccc(Br)cc2N)cc1Cl,103
17,CN(CC(=O)N(Cc1ccc(C2CCCCC2)cc1)c1ccc(C(=O)O)c(O)c1)[S+](=O)([O-])c1c(F)c(F)c(F)c(F)c1F,112
18,CN1CCN(CC1)C2=C3OCN(C)N4\C=C(C(O)=O)/C(=O)C(=C34)C=C2F,123
19,NC(=O)C1CCCc2c1[nH]c1ccc(Cl)cc21 (centres undefined),96
20,C[C@@H]\1CC(=O)N\N=C1C2=CC=C(NN=C(C#N)C#N)C=C2,92.1
21,CN(C)C[C@@H]1CC[N]2C=C(C3=C2C=CC=C3)C/4=C(/C(=O)NC4=O)C5=C[N](CCO1)C6=C5C=CC=C6,89.8

row,SMILES,viability
1,COCCCC/C(=N\OCCN)c1ccc(C(F)(F)F)cc1,90
2,Cc1ccc(NC(=O)c2ccc(CN3CCN(C)CC3)cc2)cc1Nc1nc(-c2cccnc2)cs1,130
3,COc1cc2c(Nc3ccc(Cl)c(Cl)c3F)ncnc2cc1OCC1C[C@@H]2CN(C)C[C@@H]2C1 (some centres undefined),12.5
4,Cc1cccc(C)c1OCC(=O)N[C@@H](Cc1ccccc1)[C@@H](O)C[C@H](Cc1ccccc1)NC(=O)[C@H](C(C)C)N1CCCNC1=O,121
5,CN1CCN(c2c(F)cc3c(=O)c(C(=O)O)cn(CCF)c3c2F)CC1,104
6,COc1ccc(C(CN(C)C)C2(O)CCCCC2)cc1 (centres undefined),100
7,Cn1cnc(-c2cc3nccc(Oc4ccc(NC(=S)NC(=O)Cc5ccccc5)cc4F)c3s2)c1,96.8
8,NC12CC3CC(CC(C3)C1)C2,136
9,O=C(O)Cc1cccc(OCCCN(Cc2cccc(C(F)(F)F)c2Cl)CC(c2ccccc2)c2ccccc2)c1,136
10,O=C(Nc1nc2cccc(-c3ccc(CN4CC[S+](=O)([O-])CC4)cc3)n2n1)C1CC1,40.4
11,OCCNC1CCCc2c1[nH]c1ccc(-c3ccccc3)cc21 (centres undefined),107
12,CC1CCN(c2cc(N3CCN(C)CC3)ccc2NC(=O)c2cc(C#N)c[nH]2)CC1,116
13,Oc1ccc(-c2nc(-c3ccncc3)c(-c3ccc(F)cc3)[nH]2)cc1,102
14,CCc1cc(Nc2nccc(-c3c(-c4ccc(OC)c(C(=O)Nc5c(F)cccc5F)c4)nc4ccccn34)n2)c(OC)cc1N1CCC(N2CCN([S+](C)(=O)[O-])CC2)CC1,122
15,NC(=O)c1cccc2cn(-c3ccc([C@@H]4CCCNC4)cc3)nc12,98.4
16,CC1SC/2=C(C(O)=O)/C(=O)C3=CC(=C(C=C3N12)N4CCN(CC4)C\C5=C(C)\OC(=O)O5)F (centres undefined),112
17,CCC(c1ccc(O)cc1)C(CC)c1ccc(O)cc1 (centres undefined),116
18,CC/C=C\C[C@H]1C(=O)CC[C@@H]1CC(=O)OC,120
19,O=P1(NCCCl)OCCCN1CCCl (centres undefined),107

# Same assay, conditions: library / dose series: MIPE library, 11-point 1:3 dilution; top concentration 92.2 µM; 48 h
row,SMILES,viability
1,O=c1[nH]c(=O)n(C2CCCO2)cc1F (centres undefined),104
2,Nc1ccn([C@H]2CS[C@@H](CO)O2)c(=O)n1,106
